Each compound was assayed on 1st-stage larvae of Haemonchus contortus (assay: Test for effect on motion of larvae of Haemonchus nematode (Haemonchus contortus)). Settings: 20 larvae per well, 27° C./95% RH for 4 days, corrected for DMSO negative control, duplicate.
Type: cell-based
Method: Test for Effect on Motion of Larvae of Haemonchus Nematode (Haemonchus contortus)
The compound of the present invention was prepared as solutions in 100% DMSO at the final concentrations of 50 ppm, 5 ppm, 0.5 ppm, 0.05 ppm and 0.005 ppm. DMSO stands for dimethyl sulfoxide.
A larval suspension containing 1st-stage larvae of Haemonchus contortus harvested by the Baermann technique (for example, see K. Nakazono et al., “Inclination of Baermann funnel wall and efficiency of nematode extraction” Proc. Assoc. Pl. Prot. Kyushu 33; 126-130 (1987) was placed at a density of 20 larvae per well in a test place, and 0.5 μL/well of the test solution containing the compound of the present invention diluted to a predetermined concentration was added to the test plate. The plate was kept, under the conditions of 27° C./95% RH for 4 days. In the test, ivermectin was used for the positive control and DMSO was used for the negative control.
The motor ability of the larvae was examined with an automatic analyzer equipped with an LCD camera. The inhibitory effect on the motion of the larvae in each treatment plot was corrected based on the inhibitory effect in the plot treated with DMSO only for the negative control. The EC50 value was calculated from the data on the corrected inhibitory effect on the motion of the larvae, and graded according to the criteria shown below.
The test was conducted in duplicate per plot.

Row | Structure (SMILES) | EC50 value, inhibitory effect on the motion of the larvae (graded)
1 | CC(CNC(=O)c1nccnc1C(F)(F)F)c1ccc(Oc2ncc(C(F)(F)F)cc2Cl)cc1Cl (racemic) [Compound 1-22] | C or higher
2 | CC(CNC(=O)c1nccnc1C(F)(F)F)c1ccc(Oc2ccc(C(F)(F)F)cn2)cc1Cl (racemic) [Compound 1-23] | C or higher
3 | CC(CNC(=O)c1nccnc1C(F)(F)F)c1ccc(Oc2ncc(Cl)cc2Cl)cc1Cl (racemic) [Compound 1-24] | C or higher
4 | COC(CNC(=O)c1nccnc1C(F)(F)F)c1ccc(Oc2ncc(C(F)(F)F)cc2Cl)cc1Cl (racemic) [Compound 1-38] | C or higher
5 | COC(CNC(=O)c1nccnc1C(F)(F)F)c1ccc(Oc2ccc(C(F)(F)F)cn2)cc1Cl (racemic) [Compound 1-39] | C or higher
6 | COC(CNC(=O)c1nccnc1C(F)(F)F)c1ccc(Oc2ncc(Cl)cc2Cl)cc1Cl (racemic) [Compound 1-40] | C or higher
7 | COC(CNC(=O)c1nccnc1C(F)(F)F)c1ccc(Oc2nc3ccccc3s2)cc1Cl (racemic) [Compound 1-41] | C or higher
8 | COC(CNC(=O)c1nccnc1C(F)(F)F)c1ccc(Oc2cccnc2)cc1Cl (racemic) [Compound 1-45] | C or higher
9 | O=C(NCCc1ccc(Oc2ccc(C(F)(F)F)cn2)cc1Cl)c1nccnc1C(F)(F)F [Compound 1-2] | C or higher
10 | O=C(NCCc1ccc(Oc2ncc(Cl)cc2Cl)cc1Cl)c1nccnc1C(F)(F)F [Compound 1-3] | C or higher
11 | O=C(NCCc1ccc(Oc2ncc(Br)cc2Cl)cc1Cl)c1nccnc1C(F)(F)F [Compound 1-4] | C or higher
12 | O=C(NCCc1ccc(Oc2cnccn2)cc1Cl)c1nccnc1C(F)(F)F [Compound 1-7] | C or higher
13 | COc1cc(OC)nc(Oc2ccc(CCNC(=O)c3nccnc3C(F)(F)F)c(Cl)c2)n1 [Compound 1-8] | C or higher
14 | O=C(NCCc1ccc(Oc2ccnc(Cl)n2)cc1Cl)c1nccnc1C(F)(F)F [Compound 1-10] | C or higher
15 | O=C(NCCc1ccc(Oc2cc(Cl)nc(Cl)n2)cc1Cl)c1nccnc1C(F)(F)F [Compound 1-11] | C or higher
16 | Cc1cc(Oc2ccc(CCNC(=O)c3nccnc3C(F)(F)F)c(Cl)c2)nc(Cl)n1 [Compound 1-12] | C or higher
17 | Cc1cnc(Cl)nc1Oc1ccc(CCNC(=O)c2nccnc2C(F)(F)F)c(Cl)c1 [Compound 1-13] | C or higher
18 | O=C(NCCc1ccc(Oc2ccc3ccccc3n2)cc1Cl)c1nccnc1C(F)(F)F [Compound 1-15] | C or higher

Row | Structure (SMILES) | EC50 value, inhibitory effect on the motion of the larvae (graded)
19 | O=C(NCCc1ccc(Oc2cnc3ccccc3n2)cc1Cl)c1nccnc1C(F)(F)F [Compound 1-16] | C or higher
20 | O=C(NCCc1ccc(Oc2nc3ccccc3s2)cc1Cl)c1nccnc1C(F)(F)F [Compound 1-17] | C or higher
21 | O=C(NCCc1ccc(Oc2nc3ccc(Cl)cc3s2)cc1Cl)c1nccnc1C(F)(F)F [Compound 1-18] | C or higher
22 | O=C(NCCc1ccc(Oc2nc3ccccc3o2)cc1Cl)c1nccnc1C(F)(F)F [Compound 1-19] | C or higher
23 | O=C(NCCc1ccc(Oc2ccc(C(F)(F)F)cc2)cc1Cl)c1nccnc1C(F)(F)F [Compound 1-21] | C or higher
24 | CC(C)(CNC(=O)c1nccnc1C(F)(F)F)c1ccc(Oc2ncc(C(F)(F)F)cc2Cl)cc1Cl [Compound 1-25] | C or higher
25 | CC(C)(CNC(=O)c1nccnc1C(F)(F)F)c1ccc(Oc2ccc(C(F)(F)F)cn2)cc1Cl [Compound 1-26] | C or higher
26 | CC(C)(CNC(=O)c1nccnc1C(F)(F)F)c1ccc(Oc2ncc(Cl)cc2Cl)cc1Cl [Compound 1-27] | C or higher
27 | O=C(NCC1(c2ccc(Oc3ncc(C(F)(F)F)cc3Cl)cc2Cl)CC1)c1nccnc1C(F)(F)F [Compound 1-28] | C or higher
28 | O=C(NCC1(c2ccc(Oc3ccc(C(F)(F)F)cn3)cc2Cl)CC1)c1nccnc1C(F)(F)F [Compound 1-29] | C or higher
29 | O=C(NCC1(c2ccc(Oc3ncc(Cl)cc3Cl)cc2Cl)CC1)c1nccnc1C(F)(F)F [Compound 1-30] | C or higher
30 | O=C(NCCc1ccc(-c2ccc(C(F)(F)F)cc2)cc1Cl)c1nccnc1C(F)(F)F [Compound 1-31] | C or higher
31 | O=C(NCCc1ccc(-c2cccc(C(F)(F)F)c2)cc1Cl)c1nccnc1C(F)(F)F [Compound 1-32] | C or higher
32 | O=C(NCCc1ccc(-c2cc(F)cc(F)c2)cc1Cl)c1nccnc1C(F)(F)F [Compound 1-33] | C or higher
33 | O=C(NCCc1ccc(-c2ccccc2)cc1Cl)c1nccnc1C(F)(F)F [Compound 1-35] | C or higher
34 | O=C(NCCc1ccc(-c2ccncc2)cc1Cl)c1nccnc1C(F)(F)F [Compound 1-36] | C or higher
35 | O=C(NCCc1ccc(-c2cccnc2)cc1Cl)c1nccnc1C(F)(F)F [Compound 1-37] | C or higher

Source: US20160362393A1, “EN[…] AGENT” (THE UNIVERSITY OF TOKYO, priority 2014, published 2016)
